Data on seven compounds can be found in ChEMBL document CHEMBL1201862, “PubChem BioAssay data set” (2004).

Experiment [1] addresses T1, Tyrosine-protein phosphatase non-receptor type 11 (Homo sapiens, UniProt Q06124).
T1 sequence (Q06124 whole entry): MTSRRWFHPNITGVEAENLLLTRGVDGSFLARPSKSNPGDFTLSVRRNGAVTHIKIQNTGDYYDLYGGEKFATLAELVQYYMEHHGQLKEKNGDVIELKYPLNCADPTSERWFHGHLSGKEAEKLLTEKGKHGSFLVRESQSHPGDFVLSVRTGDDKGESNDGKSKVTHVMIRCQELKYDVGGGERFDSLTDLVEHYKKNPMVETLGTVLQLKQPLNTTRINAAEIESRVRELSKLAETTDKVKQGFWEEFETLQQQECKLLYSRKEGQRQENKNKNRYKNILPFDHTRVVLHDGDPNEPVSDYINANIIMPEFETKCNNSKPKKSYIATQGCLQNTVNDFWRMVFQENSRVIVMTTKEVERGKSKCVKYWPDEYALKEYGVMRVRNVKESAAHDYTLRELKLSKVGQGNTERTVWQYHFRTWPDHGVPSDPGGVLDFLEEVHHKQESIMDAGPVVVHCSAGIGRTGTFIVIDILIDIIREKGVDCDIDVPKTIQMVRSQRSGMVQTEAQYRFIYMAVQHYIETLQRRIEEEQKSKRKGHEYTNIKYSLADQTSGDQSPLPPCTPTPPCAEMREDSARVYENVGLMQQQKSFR
Description: SHP2 phosphatase inhibition, dose response, selectivity assay for STEP inhibitor project, biochemical (AID 602367). The format is functional. The conditions noted are these: read-out: IC50_Mean.

Experiment [2] deals with Dual specificity protein phosphatase 3 (Homo sapiens, UniProt P51452). Description: VHR phosphatase inhibition, dose response, selectivity assay for STEP inhibitor project, biochemical (AID 602374). The format is functional. The conditions noted are these: read-out: IC50_Mean.
Chain of Dual specificity protein phosphatase 3 (P51452 whole entry): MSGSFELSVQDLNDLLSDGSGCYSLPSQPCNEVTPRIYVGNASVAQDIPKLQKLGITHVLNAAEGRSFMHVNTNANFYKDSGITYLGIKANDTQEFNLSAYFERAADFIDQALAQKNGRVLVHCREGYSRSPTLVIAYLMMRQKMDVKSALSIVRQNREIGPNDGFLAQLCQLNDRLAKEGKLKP
Experiment [3] deals with Low molecular weight phosphotyrosine protein phosphatase (Homo sapiens, UniProt P24666). It counts as functional. Conditions: read-out: IC50_Mean.
Chain of Low molecular weight phosphotyrosine protein phosphatase (P24666 whole entry): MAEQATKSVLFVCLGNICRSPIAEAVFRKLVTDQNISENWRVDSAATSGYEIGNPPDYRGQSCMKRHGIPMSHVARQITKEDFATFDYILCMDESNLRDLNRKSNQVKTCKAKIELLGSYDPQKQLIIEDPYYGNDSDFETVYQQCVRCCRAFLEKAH
The target of experiment [4] is T2, Tyrosine-protein phosphatase non-receptor type 5 (Homo sapiens, UniProt P54829).
T2 sequence (P54829 whole entry): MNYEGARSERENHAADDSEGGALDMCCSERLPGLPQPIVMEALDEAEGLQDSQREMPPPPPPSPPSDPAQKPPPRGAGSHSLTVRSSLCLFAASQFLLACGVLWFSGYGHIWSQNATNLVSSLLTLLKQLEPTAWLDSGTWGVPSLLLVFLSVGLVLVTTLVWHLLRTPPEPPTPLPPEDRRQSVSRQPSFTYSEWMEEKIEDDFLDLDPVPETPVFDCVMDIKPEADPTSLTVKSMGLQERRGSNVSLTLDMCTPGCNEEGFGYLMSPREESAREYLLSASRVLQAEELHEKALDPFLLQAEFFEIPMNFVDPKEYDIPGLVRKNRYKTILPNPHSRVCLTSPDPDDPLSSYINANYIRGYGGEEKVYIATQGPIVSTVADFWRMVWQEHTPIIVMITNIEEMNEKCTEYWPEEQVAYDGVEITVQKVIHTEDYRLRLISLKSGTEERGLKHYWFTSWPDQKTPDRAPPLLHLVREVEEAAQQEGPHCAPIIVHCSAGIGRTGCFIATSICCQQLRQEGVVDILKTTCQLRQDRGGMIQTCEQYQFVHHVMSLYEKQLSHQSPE
Briefly: STEP phosphatase inhibitors, confirmation, biochemical, fluorescence intensity, uHTS hits (AID 602372). It counts as functional. The conditions noted are these: read-out: IC50_Mean.

In experiment [5] the target is T3, Tyrosine-protein phosphatase non-receptor type 22 (Homo sapiens, UniProt Q9Y2R2).
T3 sequence (Q9Y2R2 whole entry): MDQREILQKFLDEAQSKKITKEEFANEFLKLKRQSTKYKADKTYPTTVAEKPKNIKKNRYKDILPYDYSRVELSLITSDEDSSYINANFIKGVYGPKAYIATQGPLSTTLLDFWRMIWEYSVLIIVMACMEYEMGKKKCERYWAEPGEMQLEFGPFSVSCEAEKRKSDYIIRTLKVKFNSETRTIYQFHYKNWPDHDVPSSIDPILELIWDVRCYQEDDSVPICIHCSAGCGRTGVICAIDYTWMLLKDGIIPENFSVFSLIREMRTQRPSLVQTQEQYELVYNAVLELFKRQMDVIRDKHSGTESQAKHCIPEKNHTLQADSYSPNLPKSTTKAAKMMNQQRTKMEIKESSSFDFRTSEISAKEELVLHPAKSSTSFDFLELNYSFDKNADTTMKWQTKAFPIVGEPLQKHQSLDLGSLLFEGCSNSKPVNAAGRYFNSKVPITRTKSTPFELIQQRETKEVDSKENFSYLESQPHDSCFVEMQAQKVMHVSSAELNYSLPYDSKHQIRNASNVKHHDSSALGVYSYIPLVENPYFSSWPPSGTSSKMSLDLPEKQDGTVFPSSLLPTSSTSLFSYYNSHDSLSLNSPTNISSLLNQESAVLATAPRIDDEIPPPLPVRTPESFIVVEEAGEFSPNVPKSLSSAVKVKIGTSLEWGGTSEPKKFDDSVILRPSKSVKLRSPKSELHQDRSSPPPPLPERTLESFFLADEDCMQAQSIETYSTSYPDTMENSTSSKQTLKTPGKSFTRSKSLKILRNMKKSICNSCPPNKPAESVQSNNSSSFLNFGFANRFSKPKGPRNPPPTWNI
Description: PTPN22 phosphatase inhibition, dose response, selectivity assay for STEP inhibitor project, biochemical (AID 624241). The format is functional.

Experiment [6] addresses T4, Replicative DNA helicase DnaB (Mycobacterium tuberculosis, UniProt P9WMR3).
T4 sequence (P9WMR3 whole entry): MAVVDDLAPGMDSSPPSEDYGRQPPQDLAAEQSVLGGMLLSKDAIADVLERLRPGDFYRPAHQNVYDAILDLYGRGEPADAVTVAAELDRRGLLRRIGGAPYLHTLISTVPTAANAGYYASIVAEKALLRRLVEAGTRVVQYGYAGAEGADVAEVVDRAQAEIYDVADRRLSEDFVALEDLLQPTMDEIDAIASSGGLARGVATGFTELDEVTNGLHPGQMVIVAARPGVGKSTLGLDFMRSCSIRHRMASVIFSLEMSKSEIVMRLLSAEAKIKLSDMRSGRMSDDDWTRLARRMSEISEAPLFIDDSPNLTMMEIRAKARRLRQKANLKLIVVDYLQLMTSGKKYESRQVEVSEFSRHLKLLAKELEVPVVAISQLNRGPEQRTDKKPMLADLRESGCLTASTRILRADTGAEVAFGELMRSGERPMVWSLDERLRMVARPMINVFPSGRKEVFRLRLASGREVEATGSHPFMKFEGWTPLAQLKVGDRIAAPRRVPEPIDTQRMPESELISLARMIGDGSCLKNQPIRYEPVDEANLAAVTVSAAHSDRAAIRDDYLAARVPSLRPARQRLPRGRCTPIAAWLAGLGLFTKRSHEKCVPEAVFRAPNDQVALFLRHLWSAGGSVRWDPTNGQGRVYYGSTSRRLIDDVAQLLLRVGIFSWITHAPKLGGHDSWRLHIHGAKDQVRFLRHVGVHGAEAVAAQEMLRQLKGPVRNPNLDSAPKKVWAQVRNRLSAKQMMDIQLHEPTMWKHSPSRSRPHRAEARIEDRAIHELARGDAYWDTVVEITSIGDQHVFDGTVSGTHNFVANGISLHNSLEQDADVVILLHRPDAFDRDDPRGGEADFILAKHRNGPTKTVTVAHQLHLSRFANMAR
Briefly: DnaB intein splicing inhibitors, dose response, biochemical, cell-free fluorescence (AID 449749). It counts as functional.

In experiment [7] the target is T5, Sentrin-specific protease 8 (Homo sapiens, UniProt Q96LD8).
T5 sequence (Q96LD8 whole entry): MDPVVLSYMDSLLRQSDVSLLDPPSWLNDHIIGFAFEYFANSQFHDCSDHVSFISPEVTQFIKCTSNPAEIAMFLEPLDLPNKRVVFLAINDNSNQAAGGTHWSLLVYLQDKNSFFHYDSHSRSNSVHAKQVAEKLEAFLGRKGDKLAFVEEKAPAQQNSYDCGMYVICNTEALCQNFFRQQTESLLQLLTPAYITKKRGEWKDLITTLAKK
The format is functional.

Another experiment has as its target T6, Protein RecA (Mycobacterium tuberculosis, UniProt P9WHJ3).
T6 sequence (P9WHJ3 whole entry): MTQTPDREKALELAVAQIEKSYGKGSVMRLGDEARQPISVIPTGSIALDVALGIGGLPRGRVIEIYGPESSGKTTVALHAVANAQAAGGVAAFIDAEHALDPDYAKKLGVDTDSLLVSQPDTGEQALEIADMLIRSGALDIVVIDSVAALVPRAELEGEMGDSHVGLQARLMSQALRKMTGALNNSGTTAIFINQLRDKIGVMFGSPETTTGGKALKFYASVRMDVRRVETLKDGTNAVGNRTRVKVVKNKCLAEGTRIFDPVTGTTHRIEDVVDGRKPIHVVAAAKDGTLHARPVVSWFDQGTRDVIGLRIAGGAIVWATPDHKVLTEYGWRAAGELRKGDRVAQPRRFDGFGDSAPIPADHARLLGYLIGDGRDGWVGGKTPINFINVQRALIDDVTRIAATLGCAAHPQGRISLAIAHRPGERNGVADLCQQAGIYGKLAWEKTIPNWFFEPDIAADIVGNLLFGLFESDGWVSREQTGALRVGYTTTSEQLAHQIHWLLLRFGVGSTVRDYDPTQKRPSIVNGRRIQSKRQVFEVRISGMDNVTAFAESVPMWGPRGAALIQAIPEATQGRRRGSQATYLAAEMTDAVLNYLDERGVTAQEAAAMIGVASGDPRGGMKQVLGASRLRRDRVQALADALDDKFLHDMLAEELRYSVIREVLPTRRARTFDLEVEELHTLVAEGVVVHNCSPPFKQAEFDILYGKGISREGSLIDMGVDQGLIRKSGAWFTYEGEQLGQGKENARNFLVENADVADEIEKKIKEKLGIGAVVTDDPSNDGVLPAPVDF
Briefly: Fluorescence Cell-Free Homogeneous Dose Retest to Identify Inhibitors of RecA-Intein Splicing Activity. [Related pubchem assays (depositor defined):AID2097, AID2223, AID489010, AID492950]. It counts as functional.

Experiment [8] deals with T7, Small ubiquitin-related modifier 1 (Homo sapiens, UniProt P63165). Briefly: inhibitors of SUMO1 peptide binding, dose response, biochemical, fluorescence polarization, uHTS hits (AID 624382). Conditions: read-out: IC50_Mean. It counts as functional.
T7 sequence (P63165 whole entry): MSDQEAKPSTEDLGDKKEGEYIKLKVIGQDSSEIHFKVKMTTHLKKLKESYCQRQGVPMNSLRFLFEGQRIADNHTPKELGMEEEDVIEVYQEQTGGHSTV
Experiment [9] has as its target T7, Small ubiquitin-related modifier 1. Description: inhibitors of SUMO1 partner interactions, dose response, biochemical, FRET (AID 624383). The format is functional. Conditions: read-out: IC50_Mean.
Experiment [10] can be described thus: miR-122 activators in hepatoma reporter cells, dose response, cell-based, Huh7 psiCHECK-miR122, Renilla luciferase, cherry-picked (AID 651956).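 Also: huh7 hepatoma cells stably carrying a psiCHECK-2 miR-122 sensor plasmid; renilla luciferase signal reporting endogenous miR-122 activity after 48 h compound exposure.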 The format is functional.
Experiment [11] deals with 5-hydroxytryptamine receptor 2A (Mus musculus, UniProt P35363). The format is functional, cell-based.
Chain of 5-hydroxytryptamine receptor 2A (P35363 whole entry): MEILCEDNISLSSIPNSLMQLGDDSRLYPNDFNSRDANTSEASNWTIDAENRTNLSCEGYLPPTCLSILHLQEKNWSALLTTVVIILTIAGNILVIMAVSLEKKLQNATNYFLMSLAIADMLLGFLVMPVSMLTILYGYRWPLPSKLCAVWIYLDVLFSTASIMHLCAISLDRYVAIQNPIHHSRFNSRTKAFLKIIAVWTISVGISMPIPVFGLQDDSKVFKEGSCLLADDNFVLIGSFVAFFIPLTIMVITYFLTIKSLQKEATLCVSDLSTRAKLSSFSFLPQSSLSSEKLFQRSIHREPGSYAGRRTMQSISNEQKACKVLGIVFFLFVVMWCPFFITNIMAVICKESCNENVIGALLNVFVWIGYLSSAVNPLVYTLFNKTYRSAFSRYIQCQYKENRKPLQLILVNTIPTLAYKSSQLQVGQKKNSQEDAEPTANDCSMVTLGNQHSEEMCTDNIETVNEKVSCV
Another experiment addresses Mu-type opioid receptor (Homo sapiens, UniProt P35372). The format is functional, cell-based.
Experiment [12] concerns the target Sentrin-specific protease 1 (Homo sapiens, UniProt Q9P0U3). Briefly: Dose response confirmation of small molecule inhibitors of the catalytic domain of the SUMO protease, SENP1 in a FRET assay. It counts as functional. The conditions noted are these: read-out: IC50_Mean.
Experiment [13] addresses Botulinum neurotoxin type F (Clostridium botulinum, UniProt P30996). Briefly: High-throughput multiplex microsphere dose response for inhibitors of toxin protease, specifically Botulinum neurotoxin light chain F protease, compounds from Cherry Pick 02. The format is functional. Conditions: read-out: EC50_MICROM.

Active and inactive are the calls of the source.

Chain of Mu-type opioid receptor (P35372 whole entry, the tested form may be a part): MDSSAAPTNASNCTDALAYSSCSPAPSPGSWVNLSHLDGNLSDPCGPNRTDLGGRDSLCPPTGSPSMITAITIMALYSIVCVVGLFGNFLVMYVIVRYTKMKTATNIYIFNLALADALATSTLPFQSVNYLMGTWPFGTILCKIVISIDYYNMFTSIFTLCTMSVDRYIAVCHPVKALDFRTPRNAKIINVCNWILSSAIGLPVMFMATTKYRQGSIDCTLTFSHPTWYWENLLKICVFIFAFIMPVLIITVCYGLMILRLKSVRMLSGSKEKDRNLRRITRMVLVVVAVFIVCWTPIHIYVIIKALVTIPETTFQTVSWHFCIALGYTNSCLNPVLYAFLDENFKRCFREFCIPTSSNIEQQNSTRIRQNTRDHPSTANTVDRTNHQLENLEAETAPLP
Chain of Botulinum neurotoxin type F (P30996 1-436 limits assumed): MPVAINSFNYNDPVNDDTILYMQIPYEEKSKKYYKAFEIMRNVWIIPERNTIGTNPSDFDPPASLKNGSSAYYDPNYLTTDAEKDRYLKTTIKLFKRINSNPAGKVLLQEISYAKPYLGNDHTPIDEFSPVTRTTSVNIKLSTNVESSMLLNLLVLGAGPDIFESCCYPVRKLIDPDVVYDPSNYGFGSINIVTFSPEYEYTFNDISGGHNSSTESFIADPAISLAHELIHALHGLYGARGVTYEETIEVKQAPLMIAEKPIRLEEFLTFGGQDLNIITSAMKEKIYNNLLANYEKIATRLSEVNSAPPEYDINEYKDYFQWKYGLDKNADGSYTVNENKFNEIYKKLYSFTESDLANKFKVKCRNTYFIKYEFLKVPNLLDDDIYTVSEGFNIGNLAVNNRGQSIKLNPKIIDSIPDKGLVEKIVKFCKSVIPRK
Chain of Sentrin-specific protease 1 (Q9P0U3 whole entry, the tested form may be a part): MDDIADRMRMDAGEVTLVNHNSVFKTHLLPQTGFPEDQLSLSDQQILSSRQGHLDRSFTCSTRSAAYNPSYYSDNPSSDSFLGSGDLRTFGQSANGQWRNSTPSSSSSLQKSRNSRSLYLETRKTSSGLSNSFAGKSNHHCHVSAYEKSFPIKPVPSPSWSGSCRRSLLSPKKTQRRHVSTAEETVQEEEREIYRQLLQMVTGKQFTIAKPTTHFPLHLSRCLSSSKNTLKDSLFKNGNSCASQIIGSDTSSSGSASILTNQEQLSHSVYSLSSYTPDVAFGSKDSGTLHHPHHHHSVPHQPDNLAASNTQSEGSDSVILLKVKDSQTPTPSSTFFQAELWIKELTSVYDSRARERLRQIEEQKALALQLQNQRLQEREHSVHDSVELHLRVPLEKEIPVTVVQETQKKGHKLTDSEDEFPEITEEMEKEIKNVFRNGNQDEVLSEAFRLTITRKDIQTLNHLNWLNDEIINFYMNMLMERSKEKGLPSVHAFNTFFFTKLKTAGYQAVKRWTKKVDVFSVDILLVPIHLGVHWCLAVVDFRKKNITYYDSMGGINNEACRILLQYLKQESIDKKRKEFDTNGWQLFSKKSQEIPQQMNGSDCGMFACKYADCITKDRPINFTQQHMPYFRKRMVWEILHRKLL

For `O=C(/C=C/c1ccc(Cl)cc1)NC(=S)Nc1ccc(C(=O)O)cc1`, the IC50 in experiment [1] was 5.89 µM (active); in [2], 5.4 µM (active); in experiment [3], 15.4 µM (active); in [4], 9.21 µM (active); in experiment [5] it was 44.2 µM (inactive).
Regarding `COc1ccc(-c2cc(=O)n(CCC#N)[nH]2)cc1`, the half-maximal activity concentration (AC50) in [6] was 2.05 µM (active). Moreover, the IC50 in experiment [7] was 50.8 µM (active). Also, the EC50 at Protein RecA was 1.02 µM (active).
`CC(=O)c1cccc(NC(=O)c2cccc3c(-c4cccc(C(N)=O)c4)coc23)c1`: the values for the IC50 in experiment [8] and in [9] were > 66.6 µM (inactive) and 20.4 µM (inactive), respectively.
For the compound `COc1cccc(NC(=O)N(C)C[C@@H]2Oc3ncc(C#Cc4ccncc4)cc3C(=O)N([C@@H](C)CO)C[C@H]2C)c1`, the AC50 in experiment [10] is 36.1 µM (active).
For `COc1cccc(OCC(O)CN2CCN(c3ccccn3)CC2)c1` (stereo not given), the results for the EC50 (in experiment [11]; at Mu-type opioid receptor) were 1.46 µM (active) and 92.4 µM (inactive), respectively.
Take `COc1ccc(OC)c(CCNC(=O)c2ccc3c(=O)[nH]c4c(C(=O)NC(C)C)sc(=S)n4c3c2)c1`: the IC50 in experiment [12] was 20.9 µM (inactive).
Consider `COc1ccc(C(CNC(=O)c2cc(S(=O)(=O)N3CCCCC3)ccc2C)N2CCCC2)cc1` (stereo not given), for which the EC50 in experiment [13] was > 20 µM (inactive).
